This data set relates to C57BL/6J-Apc^Min mice. Briefly: Chemopreventive activity in Apc^Min mouse model (intestinal tumor number). To be noted: for Tumor # ±S.D.: avg. age 118 days. Here is the method:
In both studies,—Carbendazim was administered orally at 1000 mg/kg, 1500 mg/kg, and 2000 mg/kg on a twice weekly to end schedule. In order to provide a positive control for the Apc^Min mouse study, Sulindac was administered ad libitum in the drinking water at 85 mg/l. Gemcitabine at 80 mg/kg, i.p., served as the positive control in the MiaPaCa study.
Female C57BL/6J-Apc^Min mice were obtained from The Jackson Laboratory at 4-5 weeks of age. The following day (Day 1), drug treatment begins. The Min (Multiple intestinal neoplasia) mouse is a strain with a mutated murine Apc (adenomatous polyposis coli) gene, which leads to the development of multiple intestinal polyps. This development is time and diet dependent, with 100% of the mice which ingest a high fat diet forming adenomas beginning around 45 days of age. These mice develop in excess of 30 adenomas throughout the intestinal tract during their 120 day life span and are therefore an ideal model for the evaluation of potential chemopreventive agents.
The mean survival times of all groups were calculated, and results are expressed as mean survival of treated mice/mean survival of control mice (T/C)×100%. A T/C value of 150 means that the mice in the treated group lived 50% longer than those of the control group; this is sometimes referred to as the increase in life span, or ILS value.
Statistics were performned on the data using primarily the log rank p-value test.

Several values for one entry are separate records, joined by “and”; a condition that tells them apart may be missing. Identical values can stand only once.

Turning to `COC(=O)Nc1nc2ccccc2[nH]1` [Carbendazim, 2-methoxycarbonylamino-benzimidazole], the “Tumor # ±S.D.” value runs as follows: (1000 mg/kg p.o. 2× weekly to end, control 31.70 ± 18.49, 1000 mg/kg) 24.7 and 24.71 ± 7.8; (2000 mg/kg p.o. 2× weekly to end, control 31.70 ± 18.49, 2000 mg/kg) 19.1 and 19.17 ± 7.36. For the same compound, the “# of non-specific Death” value reads like this: (1000 mg/kg p.o. 2× weekly to end, n 10) 3; (1500 mg/kg p.o. 2× weekly to end, n 10) 2; (2000 mg/kg p.o. 2× weekly to end, n 9) 3.
Take `CC1=C(CC(=O)O)c2cc(F)ccc2/C1=C\c1ccc([S+](C)[O-])cc1` (stereo not drawn) [Sulindac, reference compound]: for the setting “0.85 mg/kg p.o. ad libitum/H20, n 9”, the “# of non-specific Death” value was determined as 0.

Source of the values: US6423734B1, “Method of preventing cancer” (The Procter & Gamble Company, priority 1999, dated 2002).
